Test results from patent publication US20220162215A1, “COMPOSITIONS AND METHODS OF USING THE SAME FOR TREATMENT OF NEURODEGENERATIVE AND MITOCHONDRIAL DISEASE” (MITOKININ, INC., priority 2019, published 2022).
Values after ≈ are worked out from the molar mass of the structure shown. Where two headings read alike, the source gives them in different places.

Experiments:
mitotoxicity = experiment: Mitotox safety margin (therapeutic window); format: cell-based; conditions: for Mitotox safety margin (Therapeutic window): class of the Ratio; for Ratio**: highest concentration with no observable mitotoxicity (μM) divided by the EC50 (μM) of the compound
HeLa MKYP cells [1] = experiment: Toxicity / cell death measured by DAPI staining (take-up); format: cell-based; conditions: for Toxicity (% positive for DAPI takeup @ 50 μM): Table 3; for Max cell death at 25 uM compound, 1 uM FO / Cell death at 25 μM (no FO): Table 3 Supplement B
Procedure: H2O2 treatment was performed as a control for cell death as measured by DAPI staining.
(§1) Briefly, HeLa MKYP cells were plated at 10,000 cells/well in 96 well plates along with compounds at various concentrations. Following 16 hrs of incubation, cells were treated with 1 uM FCCP/oligomycin for 6 hours, then analyzed via FACS for the presence of mitochondria in lysosomes (as determined by an emissions spectrum shift from the pH-sensitive mtKeima tag).

Solubility in 1× PBS = format: physicochemical
HeLa MKYP cells [2] = experiment: Human mitophagy assay (HeLa MKYP, mtKeima FACS, FCCP/oligomycin); format: cell-based
Procedure: as §1, with “tag). Examples are shown in FIG. 1 through FIG. 13 below.” for “tag).”

[3] = Table 3, read-out: Potency at 1 μM F/O toxin* (EC50 of mitophagy activation)
[4] = Homo sapiens, HeLa, Table 3 Supplement B, read-out: Mitophagy EC50 (HeLa mKeima assay)
[5] = Homo sapiens, HeLa, Table 3, read-out: Potency at 1 μM F/O toxin* (EC50 of mitophagy activation)

Compound | Toxicity (% positive for DAPI takeup @ 50 μM) (HeLa MKYP cells [1]; 50 μM) [%] | solubility (Solubility in 1× PBS) [µM] | Mitotox safety margin (Therapeutic window) (mitotoxicity) | Ratio** (mitotoxicity) | Max cell death at 25 uM compound, 1 uM FO (HeLa MKYP cells [1]) [%] | Cell death at 25 μM (no FO) (HeLa MKYP cells [1]) [%] | EC50 (HeLa MKYP cells [2]; [4]) [µM] | EC50 (HeLa MKYP cells [2]; [5]) [µM] | further results
C[C@H]1CCc2ccccc2[C@@H]1Nc1ncnc2[nH]c(C(F)(F)F)cc12 [Compound 102] | 13.3 | 1 (≈ 0.346 µg/mL) |  |  |  |  |  |  | Mitotox safety margin (Therapeutic window) (mitotoxicity; listed as EP-0037882): ++++ (ratio 30<); Ratio** (mitotoxicity; listed as EP-0037882): 42.16; Max cell death at 25 uM compound, 1 uM FO (HeLa MKYP cells [1]; listed as EP-0037882): 13.32%; Cell death at 25 μM (no FO) (HeLa MKYP cells [1]; listed as EP-0037882): 3.79%; EC50 (HeLa MKYP cells [2]; [3]): 0.6 µM; EC50 (HeLa MKYP cells [2]; Table 3 Supplement B, listed as EP-0037882, read-out: Mitophagy EC50 (HeLa mKeima assay)): 0.59 µM
CN1CC[C@H](Nc2ncnc3[nH]c(C(F)(F)F)cc23)c2ccccc21 [Compound 81] | 59.0 | 74.8 (≈ 26 µg/mL) | ++++ (ratio 30<) | 30 | 16 | 2.51 | 1.33 |  | EC50 (HeLa MKYP cells [2]; [3]): 1.7 µM
c1ccc2c(c1)CCC[C@H]2Nc1ncnc2[nH]c(C3CC3)cc12 [Compound 107] | 16.6 | 1 (≈ 0.304 µg/mL) | ++++ (ratio 30<) | 53.2 | 14.9 | 9.32 | 0.47 | 0.48 | 
OC[C@@H]1CCc2ccccc2[C@H]1Nc1ncnc2[nH]c(C(F)(F)F)cc12 [Compound 94] | 59.5 | 12.9 (≈ 4.67 µg/mL) | + (ratio <10) | 7.25 | 59.535 | 27 | 1.15 | 1.1 | 
FC(F)(F)c1cc2c(N[C@@H]3CCOc4ccccc43)ncnc2[nH]1 [Compound 37] | 21.1 | 150 (≈ 50.1 µg/mL) | + (ratio <10) | 8.85 | 21 | 3.04 | 6.25 | 6.3 | Toxicity (% positive for DAPI take-up at 50 μM)* (HeLa MKYP cells [1]; Table 3 Supplement A, 50 μM): 21.05%; EC50 (HeLa MKYP cells [2]; Homo sapiens, HeLa, Table 3 Supplement A, as measured in Table 3, read-out: Potency (EC50 Max Mitophagy) (μM)*): 6.28 µM
CO[C@H]1COc2ccccc2[C@@H]1Nc1ncnc2[nH]c(C(F)(F)F)cc12 [Compound 98] | 15.9 | 16.3 (≈ 5.94 µg/mL) |  |  |  |  |  |  | Max cell death at 25 uM compound, 1 uM FO (HeLa MKYP cells [1]; listed as EP-0037863): 15.865%; Cell death at 25 μM (no FO) (HeLa MKYP cells [1]; listed as EP-0037863): 3.66%; EC50 (HeLa MKYP cells [2]; Table 3 Supplement B, listed as EP-0037863, read-out: Mitophagy EC50 (HeLa mKeima assay)): 4 µM
C[C@@H]1CCc2ccccc2[C@H]1Nc1ncnc2[nH]c(C(F)(F)F)cc12 [Compound 103] | 23.8 | 1 (≈ 0.346 µg/mL) |  |  | 23.8 | 17.9 | 4.18 | 4.2 | 
C[C@H]1CCc2ccccc2[C@H]1Nc1ncnc2[nH]c(C(F)(F)F)cc12 [Compound 85] | 31.4 |  | + (ratio <10) | 7.74 |  |  | 1.08 |  | Max cell death at 25 uM compound, 1 uM FO (HeLa MKYP cells [1]; listed as EP-0037094): 31.4%; Cell death at 25 μM (no FO) (HeLa MKYP cells [1]; listed as EP-0037094): 7.13%; EC50 (HeLa MKYP cells [2]; [3]): 1.1 µM
OC1CCc2ccccc2C1Nc1ncnc2[nH]c(C(F)(F)F)cc12 (stereo not shown) [Compound 91] | 12.8 | 1 (≈ 0.348 µg/mL) |  |  | 12.8 | 3.79 |  | > 50 | Mitophagy EC50 (HeLa mKeima assay) (HeLa MKYP cells [2]; Table 3 Supplement B): Minimal activity
COc1ccc2c(c1)[C@@H](Nc1ncnc3[nH]c(C(F)(F)F)cc13)CCC2 [Compound 87] | 5.9 | 1.2 (≈ 0.435 µg/mL) |  |  |  |  |  |  | Max cell death at 25 uM compound, 1 uM FO (HeLa MKYP cells [1]; listed as EP-0037131): 5.9%; Cell death at 25 μM (no FO) (HeLa MKYP cells [1]; listed as EP-0037131): 1.2%; EC50 (HeLa MKYP cells [2]; [3]): 9.5 µM; EC50 (HeLa MKYP cells [2]; Table 3 Supplement B, listed as EP-0037131, read-out: Mitophagy EC50 (HeLa mKeima assay)): 9.46 µM
O[C@H]1Cc2ccccc2[C@@H]1Nc1ncnc2[nH]c(C(F)(F)F)cc12 [Compound 90] | 14.4 | 20.1 (≈ 6.72 µg/mL) | + (ratio <10) | 1.35 | 14.4 | 2.51 | 18.5 |  | 
O[C@@H]1Cc2ccccc2[C@H]1Nc1ncnc2[nH]c(C(F)(F)F)cc12 [Compound 88] | 7.6 | 19.2 (≈ 6.42 µg/mL) | + (ratio <10) | 1.66 | 7.59 | 2.35 | 15.1 |  | 
CO[C@@H]1COc2ccccc2[C@H]1Nc1ncnc2[nH]c(C(F)(F)F)cc12 [Compound 97] | 10.6 | 16.4 (≈ 5.97 µg/mL) |  |  | 10.645 | 2.61 | 6.32 | 6.3 | 
C[C@H]1CCc2ccccc2[C@@H]1Nc1ncnc2[nH]c(C(F)(F)F)cc12 [Compound 82] | 28.3 | 1 (≈ 0.346 µg/mL) |  |  |  |  | 1.02 | 1 | Mitotox safety margin (Therapeutic window) (mitotoxicity; listed as EP-0037059): + (ratio <10); Ratio** (mitotoxicity; listed as EP-0037059): 8.69; Max cell death at 25 uM compound, 1 uM FO (HeLa MKYP cells [1]; listed as EP-0037059): 26%; Cell death at 25 μM (no FO) (HeLa MKYP cells [1]; listed as EP-0037059): 4.9%
O[C@H]1Cc2ccccc2[C@H]1Nc1ncnc2[nH]c(C(F)(F)F)cc12 [Compound 83] | 21.2 | 194 (≈ 64.9 µg/mL) |  |  | 21.2 | 2.75 |  | > 50 | Mitophagy EC50 (HeLa mKeima assay) (HeLa MKYP cells [2]; Table 3 Supplement B): Minimal activity
CC[C@@H]1CCc2ccccc2[C@@H]1Nc1ncnc2[nH]c(C(F)(F)F)cc12 [Compound 100] | 8.7 | 9.39 (≈ 3.38 µg/mL) | ++ (ratio 10< × <20) | 13.8 | 8.735 | 5.04 | 1.81 | 1.8 | 
CC(=O)N1CCC(Nc2ncnc3[nH]c(C(F)(F)F)cc23)c2ccccc21 (stereo not shown) [Compound 93] | 6.9 | 1.32 (≈ 0.495 µg/mL) |  |  | 6.92 | 2.69 | 17.3 |  | 
N#Cc1cccc2c1CCCC2Nc1ncnc2[nH]c(C(F)(F)F)cc12 (stereo not shown) [Compound 92] | 71.2 | 1 (≈ 0.357 µg/mL) | + (ratio <10) | 8.39 | 71.2 | 57.1 | 2.98 | 3 | 
O[C@@H]1Cc2ccccc2[C@@H]1Nc1ncnc2[nH]c(C(F)(F)F)cc12 [Compound 84] | 35.6 | 194 (≈ 64.9 µg/mL) |  |  | 35.6 | 5.5 | 9.04 | 9 | 
CO[C@H]1COc2ccccc2[C@@H]1Nc1ncnc2[nH]c(C(F)(F)F)cc12 [Compound 104] | 7.7 |  |  |  |  |  |  |  | Max cell death at 25 uM compound, 1 uM FO (HeLa MKYP cells [1]; listed as EP-0037962): 7.67%; Cell death at 25 μM (no FO) (HeLa MKYP cells [1]; listed as EP-0037962): 5.15%; solubility (Solubility in 1× PBS; aqueous buffer): 1.31 µM (≈ 0.477 µg/mL); EC50 (HeLa MKYP cells [2]; [3]): 1.5 µM; EC50 (HeLa MKYP cells [2]; Table 3 Supplement B, listed as EP-0037962, read-out: Mitophagy EC50 (HeLa mKeima assay)): 1.48 µM
